This passage reports Viability and IC50 results from ChEMBL document CHEMBL1144405, “Synthesis and cellular studies of nonaggregated water-soluble phthalocyanines” (J Med Chem, 2005).

Experiment [1] deals with HEp-2. The experiment in a line: Percent of cell viability for the compound was measured in human HEp2 cells. The experiment is classed as functional.
Another experiment has as its system V79. The experiment in a line: Percent of cell viability for the compound was measured in hamster V79 cells. Type of experiment: functional, Cricetulus griseus.
Experiment [2] relates to HEp-2. The experiment is described as follows: Inhibitory concentration was measured against human HEp2 cells; upon exposure to light (1 J/cm**2). The conditions noted are these: HEp-2, light or radiation study. The experiment is classed as functional, cell-based.
A further experiment has as its system HEp2 (human). The experiment is described as follows: Inhibitory concentration was measured against human HEp2 cells; upon exposure to light (1 J/cm**2). The conditions noted are these: HEp2, light or radiation study.

Broadly, the IC50 is the midpoint of a concentration-inhibition curve. A lower IC50 goes with inhibition by little substance.

On to `O=C(O)c1cc(Oc2cc3c(cc2Oc2cc(C(=O)O)cc(C(=O)O)c2)-c2nc-3nc3[n-]c(nc4nc(nc5[n-]c(n2)c2cc(Oc6cc(C(=O)O)cc(C(=O)O)c6)c(Oc6cc(C(=O)O)cc(C(=O)O)c6)cc52)-c2cc(Oc5cc(C(=O)O)cc(C(=O)O)c5)c(Oc5cc(C(=O)O)cc(C(=O)O)c5)cc2-4)c2cc(Oc4cc(C(=O)O)cc(C(=O)O)c4)c(Oc4cc(C(=O)O)cc(C(=O)O)c4)cc32)cc(C(=O)O)c1.[Zn+2]`, for which the values for the Viability in the experiment with HEp-2 [1] and in the experiment with V79 were 80% and above 80%, respectively.
With `O=C([O-])c1cc(Oc2cc3c(cc2Oc2cc(C(=O)[O-])cc(C(=O)O)c2)-c2nc-3nc3[nH]c(nc4nc(nc5[nH]c(n2)c2cc(Oc6cc(C(=O)[O-])cc(C(=O)[O-])c6)c(Oc6cc(C(=O)[O-])cc(C(=O)O)c6)cc52)-c2cc(Oc5cc(C(=O)[O-])cc(C(=O)O)c5)c(Oc5cc(C(=O)[O-])cc(C(=O)O)c5)cc2-4)c2cc(Oc4cc(C(=O)[O-])cc(C(=O)O)c4)c(Oc4cc(C(=O)[O-])cc(C(=O)[O-])c4)cc32)cc(C(=O)[O-])c1.[Na+].[Na+].[Na+].[Na+].[Na+].[Na+].[Na+].[Na+].[Na+].[Zn+2]`, the Viability in the experiment with HEp-2 [1] and in the experiment with V79 was 80% in each case. Moreover, the IC50 in the experiment on HEp-2 [2] and in the experiment with HEp2 (human) was 4.5 µM throughout.
For the compound `O=C([O-])c1cc(Oc2cc3c(cc2Oc2cc(C(=O)[O-])cc(C(=O)[O-])c2)-c2nc-3nc3[nH]c(nc4nc(nc5[nH]c(n2)c2cc(Oc6cc(C(=O)[O-])cc(C(=O)[O-])c6)c(Oc6cc(C(=O)[O-])cc(C(=O)[O-])c6)cc52)-c2cc(Oc5cc(C(=O)[O-])cc(C(=O)[O-])c5)c(Oc5cc(C(=O)[O-])cc(C(=O)[O-])c5)cc2-4)c2cc(Oc4cc(C(=O)[O-])cc(C(=O)[O-])c4)c(Oc4cc(C(=O)[O-])cc(C(=O)[O-])c4)cc32)cc(C(=O)[O-])c1.[Na+].[Na+].[Na+].[Na+].[Na+].[Na+].[Na+].[Na+].[Na+].[Na+].[Na+].[Na+].[Na+].[Na+].[Na+].[Na+].[Zn]`, the Viability in the experiment on HEp-2 [1] and in the experiment with V79 was 80% in each case.
